Results from ChEMBL document CHEMBL3045684, “Compatibility of traditional and novel acaricides with bumblebees (Bombus terrestris): a first laboratory assessment of toxicity and sublethal effects” (Pest Manag Sci, 2010).
The source made the active and inactive calls. No cut-off for these calls is given here.

Assays:
[1] = system: Bombus terrestris; assay: Contact toxicity against worker Bombus terrestris (bumblebee) assessed as mortality at 10 mg a.i./l applied on the dorsal thorax for 11 weeks measured everyday for 3 days followed by once a week for 11 weeks; assay type: functional
[2] = system: Bombus terrestris; assay: Toxicity against worker Bombus terrestris (bumblebee) assessed as mortality at 10 mg a.i./l, po administered through pollen for 11 weeks measured everyday for 3 days followed by once a week for 11 weeks; assay type: functional, organism-based
[3] = system: Bombus terrestris; assay: Contact toxicity against worker Bombus terrestris (bumblebee) assessed as reduction in reproduction at 10 mg a.i./l applied on the dorsal thorax for 11 weeks measured once a week for 11 weeks relative to control; assay type: functional, organism-based
[4] = system: Bombus terrestris; assay: Toxicity against worker Bombus terrestris (bumblebee) assessed as mortality at 10 mg a.i./l, po administered through sugar water for 11 weeks measured everyday for 3 days followed by once a week for 11 weeks; assay type: functional
[5] = system: Bombus terrestris; assay: Contact toxicity against Bombus terrestris (bumblebee) assessed per bee; assay type: functional
[6] = system: Apis mellifera; assay: Contact toxicity against Apis mellifera (honey bee) assessed per bee; assay type: functional
[7] = system: Bombus terrestris; assay: Contact toxicity against worker Bombus terrestris (bumblebee) assessed as reduction in reproduction at 100 mg a.i./l applied on the dorsal thorax for 11 weeks measured once a week for 11 weeks relative to control; assay type: functional, organism-based
[8] = system: Bombus terrestris; assay: Toxicity against worker Bombus terrestris (bumblebee) assessed as reduction in reproduction at 200 mg a.i./l, po administered through sugar water for 11 weeks measured once a week for 11 weeks relative to control; assay type: functional, organism-based
[9] = system: Bombus terrestris; assay: Toxicity against worker Bombus terrestris (bumblebee) assessed as mortality at 200 mg a.i./l, po administered through sugar water for 11 weeks measured everyday for 3 days followed by once a week for 11 weeks; assay type: functional
[10] = system: Bombus terrestris; assay: Toxicity against worker Bombus terrestris (bumblebee) assessed as reduction in reproduction at 10 mg a.i./l, po administered through pollen for 11 weeks measured once a week for 11 weeks; assay type: functional; parameters: scale not given: the % may be the effect or the level left
[11] = system: Bombus terrestris; assay: Toxicity against worker Bombus terrestris (bumblebee) assessed as reduction in reproduction at 100 mg a.i./l, po administered through pollen for 11 weeks measured once a week for 11 weeks; assay type: functional; parameters: scale not given: the % may be the effect or the level left
[12] = system: Bombus terrestris; assay: Contact toxicity against worker Bombus terrestris (bumblebee) assessed as mortality at 100 mg a.i./l applied on the dorsal thorax for 11 weeks measured everyday for 3 days followed by once a week for 11 weeks; assay type: functional
[13] = system: Bombus terrestris; assay: Contact toxicity against worker Bombus terrestris (bumblebee) assessed as mortality at 200 mg a.i./l applied on the dorsal thorax for 11 weeks measured everyday for 3 days followed by once a week for 11 weeks; assay type: functional
[14] = system: Bombus terrestris; assay: Toxicity against worker Bombus terrestris (bumblebee) assessed as reduction in reproduction at 10 mg a.i./l, po administered through sugar water for 11 weeks measured once a week for 11 weeks relative to control; assay type: functional, organism-based
[15] = system: Bombus terrestris; assay: Toxicity against worker Bombus terrestris (bumblebee) assessed as mortality at 100 mg a.i./l, po administered through pollen for 11 weeks measured everyday for 3 days followed by once a week for 11 weeks; assay type: functional
[16] = system: Bombus terrestris; assay: Toxicity against worker Bombus terrestris (bumblebee) assessed as reduction in reproduction at 200 mg a.i./l, po administered through pollen for 11 weeks measured once a week for 11 weeks; assay type: functional; parameters: scale not given: the % may be the effect or the level left
[17] = system: Bombus terrestris; assay: Contact toxicity against worker Bombus terrestris (bumblebee) assessed as reduction in reproduction at 200 mg a.i./l applied on the dorsal thorax for 11 weeks measured once a week for 11 weeks relative to control; assay type: functional, organism-based
[18] = system: Bombus terrestris; assay: Toxicity against worker Bombus terrestris (bumblebee) assessed as mortality at 200 mg a.i./l, po administered through pollen for 11 weeks measured everyday for 3 days followed by once a week for 11 weeks; assay type: functional
[19] = system: Bombus terrestris; assay: Toxicity against worker Bombus terrestris (bumblebee) assessed as reduction in reproduction at 100 mg a.i./l, po administered through sugar water for 11 weeks measured once a week for 11 weeks relative to control; assay type: functional, organism-based
[20] = system: Bombus terrestris; assay: Toxicity against worker Bombus terrestris (bumblebee) assessed as mortality at 100 mg a.i./l, po administered through sugar water for 11 weeks measured everyday for 3 days followed by once a week for 11 weeks; assay type: functional
[21] = system: Bombus terrestris; assay: Toxicity against worker Bombus terrestris (bumblebee) assessed as reduction in reproduction at 500 mg a.i./l, po administered through sugar water for 11 weeks measured once a week for 11 weeks relative to control; assay type: functional, organism-based
[22] = system: Bombus terrestris; assay: Toxicity against worker Bombus terrestris (bumblebee) assessed as mortality at 500 mg a.i./l, po administered through pollen for 11 weeks measured everyday for 3 days followed by once a week for 11 weeks; assay type: functional, organism-based
[23] = system: Bombus terrestris; assay: Contact toxicity against worker Bombus terrestris (bumblebee) assessed as reduction in reproduction at 500 mg a.i./l applied on the dorsal thorax for 11 weeks measured once a week for 11 weeks relative to control; assay type: functional, organism-based
[24] = system: Bombus terrestris; assay: Toxicity against worker Bombus terrestris (bumblebee) assessed as mortality at 500 mg a.i./l, po administered through sugar water for 11 weeks measured everyday for 3 days followed by once a week for 11 weeks; assay type: functional
[25] = system: Bombus terrestris; assay: Toxicity against worker Bombus terrestris (bumblebee) assessed as reduction in reproduction at 500 mg a.i./l, po administered through pollen for 11 weeks measured once a week for 11 weeks; assay type: functional; parameters: scale not given: the % may be the effect or the level left
[26] = system: Bombus terrestris; assay: Contact toxicity against worker Bombus terrestris (bumblebee) assessed as mortality at 500 mg a.i./l applied on the dorsal thorax for 11 weeks measured everyday for 3 days followed by once a week for 11 weeks; assay type: functional
[27] = system: Bombus terrestris; assay: Toxicity against worker Bombus terrestris (bumblebee) assessed as reduction in reproduction at 150 mg a.i./l, po administered through pollen for 11 weeks measured once a week for 11 weeks; assay type: functional; parameters: scale not given: the % may be the effect or the level left
[28] = system: Bombus terrestris; assay: Toxicity against worker Bombus terrestris (bumblebee) assessed as mortality at 150 mg a.i./l, po administered through sugar water for 11 weeks measured everyday for 3 days followed by once a week for 11 weeks; assay type: functional
[29] = system: Bombus terrestris; assay: Contact toxicity against worker Bombus terrestris (bumblebee) assessed as mortality at 150 mg a.i./l applied on the dorsal thorax for 11 weeks measured everyday for 3 days followed by once a week for 11 weeks; assay type: functional
[30] = system: Bombus terrestris; assay: Contact toxicity against worker Bombus terrestris (bumblebee) assessed as reduction in reproduction at 150 mg a.i./l applied on the dorsal thorax for 11 weeks measured once a week for 11 weeks relative to control; assay type: functional, organism-based
[31] = system: Bombus terrestris; assay: Toxicity against worker Bombus terrestris (bumblebee) assessed as mortality at 150 mg a.i./l, po administered through pollen for 11 weeks measured everyday for 3 days followed by once a week for 11 weeks; assay type: functional, organism-based
[32] = system: Bombus terrestris; assay: Toxicity against po dosed worker Bombus terrestris (bumblebee) administered through sugar water for 11 weeks measured everyday for 3 days followed by once a week for 11 weeks; assay type: functional
[33] = system: Bombus terrestris; assay: Toxicity against worker Bombus terrestris (bumblebee) assessed as mortality at 96 mg a.i./l, po administered through pollen for 11 weeks measured everyday for 3 days followed by once a week for 11 weeks; assay type: functional, organism-based
[34] = system: Bombus terrestris; assay: Contact toxicity against worker Bombus terrestris (bumblebee) assessed as mortality at 96 mg a.i./l applied on the dorsal thorax for 11 weeks measured everyday for 3 days followed by once a week for 11 weeks; assay type: functional
[35] = system: Apis mellifera; assay: Contact toxicity against Apis mellifera (honey bee) assessed per bee after 48 hr; assay type: functional
[36] = system: Bombus terrestris; assay: Toxicity against worker Bombus terrestris (bumblebee) assessed as mortality at 96 mg a.i./l, po administered through sugar water measured up to 1 week; assay type: functional, organism-based
[37] = system: Bombus terrestris; assay: Toxicity against worker Bombus terrestris (bumblebee) assessed as mortality at 96 mg a.i./l, po administered through sugar water for 11 weeks measured everyday for 3 days followed by once a week for 11 weeks; assay type: functional
[38] = system: Bombus terrestris; assay: Toxicity against worker Bombus terrestris (bumblebee) assessed as reduction in reproduction at 96 mg a.i./l, po administered through sugar water for 11 weeks measured once a week for 11 weeks relative to control; assay type: functional, organism-based
[39] = system: Bombus terrestris; assay: Contact toxicity against worker Bombus terrestris (bumblebee) assessed as reduction in reproduction at 96 mg a.i./l applied on the dorsal thorax for 11 weeks measured once a week for 11 weeks relative to control; assay type: functional, organism-based
[40] = system: Bombus terrestris; assay: Toxicity against worker Bombus terrestris (bumblebee) assessed as reduction in reproduction at 30 mg a.i./l, po administered through sugar water for 11 weeks measured once a week for 11 weeks relative to control; assay type: functional, organism-based

SMILES: C/C1=C\C[C@@H]2C[C@@H](C[C@]3(CC[C@H](C)[C@@H](C)O3)O2)OC(=O)[C@@H]2CC[C@@H](O)[C@H]3OC/C(=C\C=C\[C@H](C)C1)[C@]32O [MILBEMECTIN]
- mortality at 10 µg/mL [1]: < 25%
- Activity [2]: inactive
- Activity [3]: inactive
- mortality at 10 µg/mL [4]: < 25%
- LD50 [5]: >100 µg
- LD50 [6]: <1 µg

SMILES: CCc1nn(C)c(C(=O)NCc2ccc(C(C)(C)C)cc2)c1Cl [TEBUFENPYRAD]
- mortality at 10 µg/mL [1]: < 25%
- Activity [7]: inactive
- Activity [2]: inactive
- Activity [8]: Active
- mortality at 200 µg/mL [9]: 50%
- Activity [10]: 50%
- Activity [3]: inactive
- Activity [11]: 50%
- mortality at 100 µg/mL [12]: < 25%
- mortality at 200 µg/mL [13]: < 25%
- mortality at 10 µg/mL [4]: 50%
- Activity [14]: Active
- mortality at 100 µg/mL [15]: 90%
- Activity [16]: 50%
- Activity [17]: inactive
- mortality at 200 µg/mL [18]: 90%
- Activity [19]: Active
- mortality at 100 µg/mL [20]: 50%

SMILES: ClC1=C(Cl)C(Cl)(C2(Cl)C(Cl)=C(Cl)C(Cl)=C2Cl)C(Cl)=C1Cl [DIENOCHLOR]
- Activity [21]: Active
- Activity [22]: inactive
- Activity [23]: inactive
- mortality at 500 µg/mL [24]: 85%
- Activity [25]: 50%
- mortality at 500 µg/mL [26]: < 25%

SMILES: Clc1ccccc1-c1nnc(-c2ccccc2Cl)nn1 [CLOFENTEZINE]
- Activity [27]: 50%
- mortality at 150 µg/mL [28]: 50%
- mortality at 150 µg/mL [29]: < 25%
- Activity [30]: Active
- Activity [31]: inactive

SMILES: CC(C)OC(=O)C(O)(c1ccc(Br)cc1)c1ccc(Br)cc1 [BROMOPROPYLATE]
- Activity [21]: Active
- Activity [22]: inactive
- Activity [23]: inactive
- mortality at 500 µg/mL [24]: < 25%
- Activity [25]: 50%
- mortality at 500 µg/mL [26]: < 25%

SMILES: COc1ccc(-c2ccccc2)cc1NNC(=O)OC(C)C [BIFENAZATE]
- LC50 [32]: 9.6 mgAi/L
- NOAEL [32]: 0.096 mgAi/L
- Activity [33]: inactive
- mortality at 96 µg/mL [34]: < 25%
- LD50 [35]: 8.5 µg
- Activity [36]: Active
- mortality at 96 µg/mL [37]: 95%
- LD50 [5]: >100 µg
- Activity [38]: Active
- Activity [39]: inactive
- LD50 [6]: <1 µg
- Activity [40]: Active
